# Results reported in ChEMBL document CHEMBL1201862, “PubChem BioAssay data set” (2004).
# Calls of active or inactive are those of the source.
# Key:
# [1] = biological target: T1, Fatty acid synthase (Homo sapiens, UniProt P49327); test: inhibition of human FAS-TE enzyme activity – biochemical, endpoint fluorescence intensity, uHTS hits, dose response (AID 624327); assay type: functional;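 also: fluorescence from hydrolysis of an O-methyl fluorescein acyl ester substrate by the enzyme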
# [2] = biological target: T2, Hepatocyte nuclear factor 4-alpha (Homo sapiens, UniProt P41235); assay type: functional, cell-based;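 also: biochemical luminescence-based dose-response counterscreen measuring inhibition of HNF4 dimerization, run alongside a screen for blockers of ABHD5–perilipin-5 interaction; split luciferase complementation of HNF4 fusion proteins in cell lysate measuring dimerization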
# T2 sequence (P41235 whole entry): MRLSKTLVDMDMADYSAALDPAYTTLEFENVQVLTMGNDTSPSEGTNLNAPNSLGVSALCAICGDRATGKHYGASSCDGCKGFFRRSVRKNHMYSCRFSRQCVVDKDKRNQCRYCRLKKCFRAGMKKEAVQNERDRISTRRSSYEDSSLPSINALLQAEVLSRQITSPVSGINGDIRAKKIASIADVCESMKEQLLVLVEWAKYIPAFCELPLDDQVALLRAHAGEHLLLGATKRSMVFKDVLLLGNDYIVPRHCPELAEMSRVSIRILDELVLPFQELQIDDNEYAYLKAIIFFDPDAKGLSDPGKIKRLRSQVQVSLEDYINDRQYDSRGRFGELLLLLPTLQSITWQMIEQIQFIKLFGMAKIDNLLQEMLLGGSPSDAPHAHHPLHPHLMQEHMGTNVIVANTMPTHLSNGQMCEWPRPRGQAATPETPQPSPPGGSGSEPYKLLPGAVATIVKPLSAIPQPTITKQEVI
# [3] = biological target: Paired box protein Pax-8 (Homo sapiens, UniProt Q06710); test: PAX8 transcriptional activity inhibition in RMG-I – RMG-I cells, luciferase, cherry-pick, dose response (AID 687027); assay type: functional, cell-based;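 also: luciferase reporter driven by Pax8 target thyroperoxidase promoter measured by SteadyGlo luminescence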
# Chain of Paired box protein Pax-8 (Q06710 whole entry): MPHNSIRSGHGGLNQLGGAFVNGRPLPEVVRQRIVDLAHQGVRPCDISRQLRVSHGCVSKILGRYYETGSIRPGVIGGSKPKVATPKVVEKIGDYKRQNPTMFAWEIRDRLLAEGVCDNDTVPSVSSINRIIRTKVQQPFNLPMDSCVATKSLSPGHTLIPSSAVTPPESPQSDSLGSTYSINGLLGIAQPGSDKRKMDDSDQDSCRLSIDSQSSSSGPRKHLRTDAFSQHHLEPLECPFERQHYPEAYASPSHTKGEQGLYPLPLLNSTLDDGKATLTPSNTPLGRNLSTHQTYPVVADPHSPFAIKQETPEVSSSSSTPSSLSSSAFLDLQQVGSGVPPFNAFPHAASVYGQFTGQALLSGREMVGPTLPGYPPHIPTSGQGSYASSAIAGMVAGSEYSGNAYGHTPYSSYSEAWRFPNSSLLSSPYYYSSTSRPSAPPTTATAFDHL
# [4] = biological target: T1, Fatty acid synthase; test: inhibition of human FAS-TE enzyme activity – biochemical, kinetic fluorescence intensity, dose response (AID 624326); assay type: functional;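 also: rate of fluorescence rise from hydrolysis of a fluorogenic O-methyl fluorescein ester substrate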
# [5] = biological target: 5-hydroxytryptamine receptor 5A (Homo sapiens, UniProt P47898); test: Counterscreen for agonists of OPRM1-OPRD1 heterodimerization: luminescence-based cell-based high throughput dose response assay to identify agonists of 5-hydroxytryptamine (serotonin) 5A receptor (HTR5A). [Related pubchem assays (depositor defined):AID504326, AID504355, AID504692, AID504904, AID504905]; assay type: functional
# Chain of 5-hydroxytryptamine receptor 5A (P47898 whole entry): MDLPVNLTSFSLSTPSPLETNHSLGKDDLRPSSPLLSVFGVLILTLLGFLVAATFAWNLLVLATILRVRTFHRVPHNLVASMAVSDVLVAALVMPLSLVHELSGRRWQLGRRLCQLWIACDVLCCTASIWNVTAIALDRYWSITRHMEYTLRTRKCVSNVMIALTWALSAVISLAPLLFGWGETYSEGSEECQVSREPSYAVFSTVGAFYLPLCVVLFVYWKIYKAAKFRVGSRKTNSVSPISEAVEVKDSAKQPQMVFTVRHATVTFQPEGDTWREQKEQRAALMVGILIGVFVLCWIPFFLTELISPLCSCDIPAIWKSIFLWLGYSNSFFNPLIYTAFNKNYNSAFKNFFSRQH
# [6] = biological target: Delta-type opioid receptor (Homo sapiens, UniProt P41143); test: Counterscreen for agonists of heterodimerization of the mu 1 (OPRM1) and delta 1 (OPRD1) opioid receptors: Luminescence-based cell-based high throughput dose response assay to identify agonists of OPRD1 homodimerization. [Related pubchem assays (depositor defined):AID504326, AID504355, AID504692, AID504904, AID504905]; assay type: functional
# Chain of Delta-type opioid receptor (P41143 whole entry, the tested form may be a part): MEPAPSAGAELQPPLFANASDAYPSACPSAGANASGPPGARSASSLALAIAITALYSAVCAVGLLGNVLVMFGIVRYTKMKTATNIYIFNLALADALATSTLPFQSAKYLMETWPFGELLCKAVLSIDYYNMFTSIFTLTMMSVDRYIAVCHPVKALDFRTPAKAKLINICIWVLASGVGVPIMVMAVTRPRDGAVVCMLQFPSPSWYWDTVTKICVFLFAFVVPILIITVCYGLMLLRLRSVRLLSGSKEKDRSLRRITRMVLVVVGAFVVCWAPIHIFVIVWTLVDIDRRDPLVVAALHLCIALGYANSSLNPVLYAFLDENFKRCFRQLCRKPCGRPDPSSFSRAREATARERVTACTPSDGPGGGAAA
# [7] = biological target: Photoreceptor-specific nuclear receptor (Homo sapiens, UniProt Q9Y5X4); assay type: functional, cell-based;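 also: CHO-S cells with Gal4-NCOR and VP16-NR2E3 two-hybrid luciferase reporter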
# Chain of Photoreceptor-specific nuclear receptor (Q9Y5X4 whole entry, the tested form may be a part): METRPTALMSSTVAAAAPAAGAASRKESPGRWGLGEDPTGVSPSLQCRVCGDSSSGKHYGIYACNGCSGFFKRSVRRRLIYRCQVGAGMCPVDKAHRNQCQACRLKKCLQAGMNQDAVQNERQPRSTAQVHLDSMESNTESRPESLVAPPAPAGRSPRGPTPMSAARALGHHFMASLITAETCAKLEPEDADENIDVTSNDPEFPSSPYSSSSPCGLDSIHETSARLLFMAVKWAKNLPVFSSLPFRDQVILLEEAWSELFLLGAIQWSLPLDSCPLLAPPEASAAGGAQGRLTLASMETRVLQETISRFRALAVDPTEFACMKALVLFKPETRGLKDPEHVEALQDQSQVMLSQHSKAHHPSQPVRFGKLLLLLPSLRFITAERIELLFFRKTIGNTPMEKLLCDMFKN
# [8] = biological target: Mu-type opioid receptor (Homo sapiens, UniProt P35372); test: Counterscreen for agonists of heterodimerization of the mu 1 (OPRM1) and delta 1 (OPRD1) opioid receptors: Luminescence-based cell-based high throughput dose response assay to identify agonists of OPRM1 homodimerization.; assay type: functional;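 also: U2OS cells expressing OPRM1 and beta-arrestin as split beta-galactosidase partners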
# [9] = biological target: T3, Long-chain-fatty-acid--AMP ligase FadD28 (Mycobacterium tuberculosis, UniProt P9WQ59); test: Fluorescence polarization aasay to screen for inhibitors that compete for the binding of FadD28 to a bisubstrate Measured in Biochemical System Using Plate Reader - 2147-01_Inhibitor_Dose_CherryPick_Activity.; assay type: functional, Mycobacterium tuberculosis H37Rv
# T3 sequence (P9WQ59 whole entry): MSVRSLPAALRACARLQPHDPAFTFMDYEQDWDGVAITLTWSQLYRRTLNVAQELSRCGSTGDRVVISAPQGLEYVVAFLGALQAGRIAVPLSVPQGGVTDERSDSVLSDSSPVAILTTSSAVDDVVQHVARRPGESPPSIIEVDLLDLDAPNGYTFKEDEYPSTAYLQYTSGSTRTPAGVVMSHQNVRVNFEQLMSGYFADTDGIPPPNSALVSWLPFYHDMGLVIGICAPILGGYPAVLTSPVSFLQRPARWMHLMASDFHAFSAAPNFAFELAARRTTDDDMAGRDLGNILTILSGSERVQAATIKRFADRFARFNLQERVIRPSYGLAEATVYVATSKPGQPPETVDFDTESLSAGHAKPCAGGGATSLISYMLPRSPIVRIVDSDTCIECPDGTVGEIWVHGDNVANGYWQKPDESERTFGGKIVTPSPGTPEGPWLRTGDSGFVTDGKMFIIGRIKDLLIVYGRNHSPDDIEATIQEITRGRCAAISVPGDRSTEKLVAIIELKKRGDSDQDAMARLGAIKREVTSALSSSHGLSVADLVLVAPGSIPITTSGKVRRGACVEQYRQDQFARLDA
# [10] = biological target: T4, Small ubiquitin-related modifier 1 (Homo sapiens, UniProt P63165); test: SUMO1 protein-protein binding blockers, potency – biochemical, FRET, dose response (AID 624383); assay type: functional; settings: read-out: IC50_Mean
# T4 sequence (P63165 whole entry): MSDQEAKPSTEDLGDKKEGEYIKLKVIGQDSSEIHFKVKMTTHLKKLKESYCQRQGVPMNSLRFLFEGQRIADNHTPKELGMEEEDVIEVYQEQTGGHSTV
# [11] = biological target: T4, Small ubiquitin-related modifier 1; test: SUMO1 protein interaction blockers, potency – biochemical, fluorescence polarization, uHTS hits, dose response (AID 624382); assay type: functional; settings: read-out: IC50_Mean
# [12] = biological target: T5, fMet-Leu-Phe receptor (Homo sapiens, UniProt P21462); test: formyl peptide receptor binders – dose response (AID 519); assay type: functional
# T5 sequence (P21462 whole entry): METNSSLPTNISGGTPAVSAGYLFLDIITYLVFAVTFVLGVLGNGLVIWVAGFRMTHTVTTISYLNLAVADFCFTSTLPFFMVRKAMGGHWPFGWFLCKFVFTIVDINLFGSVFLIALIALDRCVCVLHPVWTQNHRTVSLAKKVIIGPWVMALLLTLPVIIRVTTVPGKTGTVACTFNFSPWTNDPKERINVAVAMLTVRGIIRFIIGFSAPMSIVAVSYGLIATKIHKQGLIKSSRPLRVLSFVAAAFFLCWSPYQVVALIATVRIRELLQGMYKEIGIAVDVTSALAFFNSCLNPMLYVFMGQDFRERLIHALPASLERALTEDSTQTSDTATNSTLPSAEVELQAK
# [13] = biological target: E3 ubiquitin-protein ligase Mdm2 (Homo sapiens, UniProt Q00987); test: MDM2-luc reporter signal enhancers, multi-concentration potency testing, MDM2 ubiquitin-protein ligase inhibitor program, whole-cell format, luminescence detection, 384-well microplate (AID 1394); assay type: functional;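 also: MDM2 E3 inhibitors raise luminescence so EC50 is for signal enhancement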
# Chain of E3 ubiquitin-protein ligase Mdm2 (Q00987 whole entry): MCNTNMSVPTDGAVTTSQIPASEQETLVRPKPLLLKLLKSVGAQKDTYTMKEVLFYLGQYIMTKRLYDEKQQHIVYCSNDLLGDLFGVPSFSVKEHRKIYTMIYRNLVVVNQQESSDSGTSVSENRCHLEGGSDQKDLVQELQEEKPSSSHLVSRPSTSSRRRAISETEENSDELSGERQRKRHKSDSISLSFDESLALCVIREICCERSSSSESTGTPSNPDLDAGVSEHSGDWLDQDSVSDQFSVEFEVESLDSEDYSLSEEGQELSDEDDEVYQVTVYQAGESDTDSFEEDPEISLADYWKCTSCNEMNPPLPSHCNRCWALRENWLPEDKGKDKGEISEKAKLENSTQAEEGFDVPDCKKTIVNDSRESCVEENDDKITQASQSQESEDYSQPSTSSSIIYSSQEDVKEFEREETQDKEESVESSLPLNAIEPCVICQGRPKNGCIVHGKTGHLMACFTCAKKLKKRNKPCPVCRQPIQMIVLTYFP
# [14] = IGROV1 cell killing – plate reader, dry powder samples, PAX8 inhibitor project, dose response (AID 743043); assay type: functional, cell-based; settings: IGROV-1
# [15] = OVCAR-3 cell viability loss – plate reader, dry powder samples, PAX8 inhibitor project, dose response (AID 743044); assay type: functional, cell-based
# [16] = OVCAR8 cell viability loss – plate reader, dry powder samples, PAX8 project, dose response (AID 743197); assay type: functional, cell-based; settings: OVCAR-8
# [17] = general cell-killing toxicity readout – plate reader, dry powder samples, cytotoxicity control for PAX8 inhibitor project, dose response (AID 743021); assay type: functional, cell-based
# [18] = biological target: DNA dC->dU-editing enzyme APOBEC-3G (Homo sapiens, UniProt Q9HC16); assay type: functional;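 also: Dose-response counterscreen measuring inhibition of APOBEC3G DNA deaminase activity, run while confirming APOBEC3A inhibitors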
# [19] = biological target: T6, Carboxy-terminal domain RNA polymerase II polypeptide A small phosphatase 1 (Homo sapiens, UniProt Q9GZU7); test: CTDSP1 inhibitors, concentration-response, biochemical, absorbance readout, ultra-high-throughput screen actives (AID 540297); assay type: functional
# T6 sequence (Q9GZU7 whole entry): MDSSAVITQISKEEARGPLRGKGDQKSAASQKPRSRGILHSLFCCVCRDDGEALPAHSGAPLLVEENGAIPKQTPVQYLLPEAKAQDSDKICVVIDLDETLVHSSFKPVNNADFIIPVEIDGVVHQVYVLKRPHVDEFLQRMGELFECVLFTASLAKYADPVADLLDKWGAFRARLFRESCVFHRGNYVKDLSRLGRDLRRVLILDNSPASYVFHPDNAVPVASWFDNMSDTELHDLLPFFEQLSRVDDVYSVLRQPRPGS
# [20] = biological target: DNA dC->dU-editing enzyme APOBEC-3A (Homo sapiens, UniProt P31941); test: Dose Response confirmation of small molecule APOBEC3A DNA Deaminase Inhibitors via a fluorescence-based single-stranded DNA deaminase assay. [Related pubchem assays (depositor defined):AID493011, AID493024]; assay type: functional
# Chain of DNA dC->dU-editing enzyme APOBEC-3A (P31941 whole entry, the tested form may be a part): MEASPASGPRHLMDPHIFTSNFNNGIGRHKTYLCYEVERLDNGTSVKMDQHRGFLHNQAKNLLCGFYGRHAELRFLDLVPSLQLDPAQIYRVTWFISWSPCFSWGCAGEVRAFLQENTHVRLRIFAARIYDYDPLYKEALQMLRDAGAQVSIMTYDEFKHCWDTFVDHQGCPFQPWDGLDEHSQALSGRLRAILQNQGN
# [21] = biological target: T7, Oxysterols receptor LXR-beta (Homo sapiens, UniProt P55055); test: LXR agonists, Gal4 luciferase reporter, dose response, counter-screen for ssDAF-12 agonist project, cell-based, luminescence, HEK293, S. stercoralis campaign (AID 720737); assay type: functional; settings: read-out: IC50 (the source's name)
# T7 sequence (P55055 whole entry): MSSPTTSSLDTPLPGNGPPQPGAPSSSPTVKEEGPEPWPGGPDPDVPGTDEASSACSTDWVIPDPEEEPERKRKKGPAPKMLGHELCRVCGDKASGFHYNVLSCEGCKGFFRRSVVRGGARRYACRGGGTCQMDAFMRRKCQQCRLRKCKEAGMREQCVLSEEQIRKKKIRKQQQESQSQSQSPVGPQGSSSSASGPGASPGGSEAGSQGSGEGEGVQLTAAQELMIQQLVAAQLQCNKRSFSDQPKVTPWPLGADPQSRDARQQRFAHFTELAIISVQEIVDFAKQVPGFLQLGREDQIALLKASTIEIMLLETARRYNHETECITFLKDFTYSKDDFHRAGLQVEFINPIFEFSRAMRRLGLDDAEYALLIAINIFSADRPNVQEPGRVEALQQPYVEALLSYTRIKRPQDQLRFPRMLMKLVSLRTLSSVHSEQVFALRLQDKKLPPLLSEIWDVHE
# [22] = Luminescence-based cell-based high throughput dose response assay to identify activators of the DAF-12 from the parasite S. stercoralis (ssDAF-12).; assay type: functional
# [23] = tested on: Vero; test: cells; assay type: functional, cell-based; settings: Chlorocebus sabaeus
# [24] = biological target: T8, Protein skinhead-1 (Caenorhabditis elegans, UniProt P34707); assay type: functional
# T8 sequence (P34707 whole entry): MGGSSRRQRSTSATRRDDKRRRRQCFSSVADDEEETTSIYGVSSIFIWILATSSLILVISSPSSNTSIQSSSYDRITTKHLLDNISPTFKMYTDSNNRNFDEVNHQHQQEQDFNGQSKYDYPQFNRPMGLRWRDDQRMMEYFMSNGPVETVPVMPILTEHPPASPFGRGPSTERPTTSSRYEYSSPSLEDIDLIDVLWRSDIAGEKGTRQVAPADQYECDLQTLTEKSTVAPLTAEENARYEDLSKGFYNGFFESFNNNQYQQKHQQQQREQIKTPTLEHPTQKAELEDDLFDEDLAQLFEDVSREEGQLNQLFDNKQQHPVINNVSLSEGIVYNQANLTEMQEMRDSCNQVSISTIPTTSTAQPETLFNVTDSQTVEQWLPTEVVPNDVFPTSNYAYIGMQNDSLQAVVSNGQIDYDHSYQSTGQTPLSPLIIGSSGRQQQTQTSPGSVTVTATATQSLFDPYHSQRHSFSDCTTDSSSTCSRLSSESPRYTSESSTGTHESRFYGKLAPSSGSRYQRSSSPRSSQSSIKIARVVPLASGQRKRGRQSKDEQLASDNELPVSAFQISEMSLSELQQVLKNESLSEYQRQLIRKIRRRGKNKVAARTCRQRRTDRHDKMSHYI
# [25] = tested on: Vero; test: cells; assay type: functional; settings: Chlorocebus sabaeus
# [26] = cells; assay type: functional, cell-based
# [27] = cells; assay type: functional, cell-based; remark: listed apart in the source
# T1 sequence (P49327 whole entry, the tested form may be a part): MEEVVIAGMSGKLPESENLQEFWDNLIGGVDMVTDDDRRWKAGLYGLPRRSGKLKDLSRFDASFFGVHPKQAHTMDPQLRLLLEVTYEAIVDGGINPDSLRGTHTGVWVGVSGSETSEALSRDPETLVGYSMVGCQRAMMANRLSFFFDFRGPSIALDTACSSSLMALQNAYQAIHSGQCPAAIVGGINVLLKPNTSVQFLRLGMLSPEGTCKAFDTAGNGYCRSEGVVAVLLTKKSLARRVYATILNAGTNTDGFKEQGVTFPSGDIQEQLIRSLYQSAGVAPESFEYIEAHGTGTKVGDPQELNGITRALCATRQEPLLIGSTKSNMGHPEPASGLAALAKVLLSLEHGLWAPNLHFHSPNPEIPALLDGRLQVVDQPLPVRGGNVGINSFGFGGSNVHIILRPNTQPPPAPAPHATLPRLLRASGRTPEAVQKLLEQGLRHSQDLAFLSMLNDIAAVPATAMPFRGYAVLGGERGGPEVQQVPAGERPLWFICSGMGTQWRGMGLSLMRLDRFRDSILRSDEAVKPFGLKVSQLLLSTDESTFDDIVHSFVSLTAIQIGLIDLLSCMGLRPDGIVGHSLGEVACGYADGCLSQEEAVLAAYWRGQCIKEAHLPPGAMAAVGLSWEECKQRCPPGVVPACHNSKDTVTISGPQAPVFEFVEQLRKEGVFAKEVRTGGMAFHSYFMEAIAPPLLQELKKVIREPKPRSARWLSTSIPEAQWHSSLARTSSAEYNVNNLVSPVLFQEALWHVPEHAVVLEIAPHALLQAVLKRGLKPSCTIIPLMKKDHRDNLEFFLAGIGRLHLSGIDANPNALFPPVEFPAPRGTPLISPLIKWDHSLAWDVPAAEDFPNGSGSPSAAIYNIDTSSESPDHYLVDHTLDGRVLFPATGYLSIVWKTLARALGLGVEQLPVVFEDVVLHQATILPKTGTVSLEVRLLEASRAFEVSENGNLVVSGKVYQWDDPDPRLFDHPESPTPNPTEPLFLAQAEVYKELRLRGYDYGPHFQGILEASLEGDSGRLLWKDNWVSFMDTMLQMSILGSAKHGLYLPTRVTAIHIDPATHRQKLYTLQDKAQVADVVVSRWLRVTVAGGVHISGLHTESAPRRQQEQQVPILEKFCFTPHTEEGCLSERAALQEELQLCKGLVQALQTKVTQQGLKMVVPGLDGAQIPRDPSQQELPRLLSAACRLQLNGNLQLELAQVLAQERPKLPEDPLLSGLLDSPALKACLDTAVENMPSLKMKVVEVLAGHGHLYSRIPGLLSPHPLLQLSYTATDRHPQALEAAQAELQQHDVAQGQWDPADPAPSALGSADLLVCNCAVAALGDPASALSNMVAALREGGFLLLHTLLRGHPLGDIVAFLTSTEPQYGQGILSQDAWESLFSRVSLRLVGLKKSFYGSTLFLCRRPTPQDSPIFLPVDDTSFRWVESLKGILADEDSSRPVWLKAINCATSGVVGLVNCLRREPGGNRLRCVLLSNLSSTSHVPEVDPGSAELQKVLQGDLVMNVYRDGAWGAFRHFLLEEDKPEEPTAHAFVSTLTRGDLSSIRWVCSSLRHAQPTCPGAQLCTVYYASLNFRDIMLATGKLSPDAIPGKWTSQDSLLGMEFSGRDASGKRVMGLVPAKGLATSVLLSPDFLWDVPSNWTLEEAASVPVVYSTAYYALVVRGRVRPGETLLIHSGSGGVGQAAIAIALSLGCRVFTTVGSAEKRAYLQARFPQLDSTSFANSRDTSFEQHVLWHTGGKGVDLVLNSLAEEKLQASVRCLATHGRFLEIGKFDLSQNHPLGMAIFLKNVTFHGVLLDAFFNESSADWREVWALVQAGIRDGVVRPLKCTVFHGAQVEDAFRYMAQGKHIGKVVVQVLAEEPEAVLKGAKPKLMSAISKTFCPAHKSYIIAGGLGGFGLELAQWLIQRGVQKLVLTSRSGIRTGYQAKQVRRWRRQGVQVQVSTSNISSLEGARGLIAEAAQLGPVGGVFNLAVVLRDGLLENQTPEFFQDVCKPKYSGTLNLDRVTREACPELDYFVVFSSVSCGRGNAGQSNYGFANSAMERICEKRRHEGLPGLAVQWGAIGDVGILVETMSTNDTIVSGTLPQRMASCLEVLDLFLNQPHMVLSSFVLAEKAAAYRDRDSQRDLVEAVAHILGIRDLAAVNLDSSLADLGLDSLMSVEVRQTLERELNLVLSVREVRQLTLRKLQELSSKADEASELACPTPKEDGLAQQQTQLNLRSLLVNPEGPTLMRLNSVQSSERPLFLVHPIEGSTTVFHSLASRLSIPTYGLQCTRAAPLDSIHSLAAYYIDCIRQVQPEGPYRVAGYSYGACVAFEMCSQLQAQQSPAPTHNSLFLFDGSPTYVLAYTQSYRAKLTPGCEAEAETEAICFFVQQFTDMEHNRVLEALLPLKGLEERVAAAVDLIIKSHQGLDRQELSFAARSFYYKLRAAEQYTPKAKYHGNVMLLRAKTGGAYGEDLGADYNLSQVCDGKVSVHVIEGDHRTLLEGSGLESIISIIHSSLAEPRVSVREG
compound,measurement,setting,value
CSC(=Nc1ccccc1)N=C(SCc1ccccc1)N(C)C,IC50,[1],1.37 µM (active)
same,IC50,[2],3.95 µM (active)
same,AC50,[3],4.55 µM (active)
same,IC50,[4],1.04 µM (active)
same,EC50,[5],> 92.4 µM (inactive)
same,EC50,[6],> 92.4 µM (inactive)
same,IC50,[7],2.61 µM (active)
same,EC50,[8],> 92.4 µM (inactive)
CC(=O)N1CCN(Cc2nc3cc(NC(=O)NC4CCCCC4)ccc3n2C)CC1,AC50,[9],81 µM (active)
CCOC(=O)c1ccc(NC(=O)c2c(N)n(Cc3ccccc3)c(=O)[nH]c2=O)cc1,IC50,[10],1.43 µM (active)
same,IC50,[11],> 66.6 µM (inactive)
COc1ccc(-c2cn3cccnc3n2)cc1NC(=O)CC(C)C,Ki,[12],> 66.7 µM (inactive)
COc1ccc(-c2cc(C(F)(F)F)nc(SCC(=O)NCc3cnn(C)c3C)n2)cc1OC,EC50,[13],16.3 µM (not active)
C[C@@H]1CCCCO[C@H](CN(C)C(=O)Nc2cccc3ccccc23)[C@H](C)CN([C@@H](C)CO)C(=O)c2cc(NS(=O)(=O)c3ccc(Cl)cc3)ccc2O1,AC50,[14],51.8 µM (active)
same,AC50,[15],16.8 µM (active)
same,AC50,[16],59.6 µM (active)
same,AC50,[3],5.39 µM (active)
same,AC50,[17],55.2 µM (active)
CC(c1ccccc1)C1OCC(C[N+]2(C)CCCCC2)O1 (stereo unspecified),IC50,[18],2.72 µM (active)
same,IC50,[19],2.75 µM (active)
same,IC50,[20],2.81 µM (active)
O=C(Nc1cccnc1Cl)c1cc(-c2cccc(O)c2)on1,IC50,[10],8.84 µM (active)
same,IC50,[11],> 66.6 µM (inactive)
CC(c1nccs1)N(C)C(=O)CCc1nnc(Cc2c[nH]c3ccccc23)o1 (stereo unspecified),EC50,[21],> 67.5 µM (inactive)
same,IC50,[22],> 67.5 µM (inactive)
COc1ccc(C(=O)/C=C/c2ccc(OC)c(CN3CCOCC3)c2)cc1,IC50,[23],9.3 µM (active)
same,IC50,[24],6.86 µM (active)
same,CC50,[25],22.6 µM (active)
Cc1ccn2c(=O)nc(SCC(=O)NCc3ccccc3Cl)nc2c1,IC50,[19],8.34 µM (active)
Cc1c(C(=O)O)cccc1-c1ccc(/C=N/n2cnnc2)o1,IC50,[19],6.52 µM (active)
CCCN(CCC)C(S)=Nc1cc(C(=O)OC)ccc1C(=O)OC,EC50,[26],> 350 µM (not active)
same,EC50,[27],> 350 µM (not active)
same,EC50,[13],343 µM (not active)
Cc1ccc(CNC(=O)C(Cc2ccccc2)NS(=O)(=O)c2cccs2)cc1 (stereo unspecified),AC50,[9],58 µM (active)
C=CCn1c(NC(=O)c2ccccc2)c(C#N)c2nc3ccccc3nc21,Ki,[12],> 66.7 µM (inactive)
CCCOc1ccc(C2C(C(=O)c3ccco3)=C(O)C(=O)N2CCCn2ccnc2)cc1 (stereo unspecified),Ki,[12],> 66.7 µM (inactive)
